Results taken from PubChem BioAssay AID256 (DTP/NCI, 2004).
Where “and” joins values, the source holds several entries; their conditions need not be identical. Identical values can stand only once. Toxic doses and inconclusive results are not listed.

Test system: CD2F1 mice, L1210 leukemia ip, survival T/C
Experiment: NCI In Vivo Anticancer Drug Screen. Data for tumor model L1210 Leukemia (intraperitoneal) in CD2F1 (CDF1) mice
Details: higher = longer survival
Summary of the method: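 Mice carrying a transplanted tumor received test compound or vehicle alone. The value is the measurement in the treated group divided by that in the vehicle-treated control group.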

[1] = endpoint: mean survival time, dose: 100.0 mg/kg/injection, schedule: Q01DX009 (ip), vehicle: saline with Tween-80
[2] = endpoint: mean survival time, dose: 100.0 mg/kg/injection, schedule: Q04DX003 (ip), vehicle: saline with Tween-80
[3] = endpoint: mean survival time, dose: 200.0 mg/kg/injection, schedule: Q01DX009 (ip), vehicle: saline with Tween-80
[4] = endpoint: mean survival time, dose: 200.0 mg/kg/injection, schedule: Q04DX003 (ip), vehicle: saline with Tween-80
[5] = endpoint: mean survival time, dose: 400.0 mg/kg/injection, schedule: Q01DX009 (ip), vehicle: saline with Tween-80
[6] = endpoint: mean survival time, dose: 400.0 mg/kg/injection, schedule: Q04DX003 (ip), vehicle: saline with Tween-80
[7] = endpoint: mean survival time, dose: 100.0 mg/kg/injection, schedule: Q04DX003 (ip), vehicle: saline
[8] = endpoint: mean survival time, dose: 200.0 mg/kg/injection, schedule: Q04DX003 (ip), vehicle: saline
[9] = endpoint: mean survival time, dose: 50.0 mg/kg/injection, schedule: Q01DX009 (ip), vehicle: saline with Tween-80

## C#CCOC(=O)NC1CCCCC1
endpoint: mean survival time, dose: 100.0 mg/kg/injection, schedule: Q04DX003 (ip), vehicle: Klucel (hydroxypropylcellulose) (HPC)
  T/C: 104 % of control
endpoint: mean survival time, dose: 200.0 mg/kg/injection, schedule: Q04DX003 (ip), vehicle: Klucel (hydroxypropylcellulose) (HPC)
  T/C: 105 % of control
endpoint: mean survival time, dose: 400.0 mg/kg/injection, schedule: Q04DX003 (ip), vehicle: Klucel (hydroxypropylcellulose) (HPC)
  T/C: 102 % of control

## O=C1C2CC(Cl)C(SSC3CC4C(=O)N(SC(Cl)(Cl)C(Cl)Cl)C(=O)C4CC3Cl)CC2C(=O)N1SC(Cl)(Cl)C(Cl)Cl (stereo not given)
endpoint: median survival time, dose: 6.25 mg/kg/injection, schedule: Q01DX009 (ip), vehicle: saline with Tween-80
  T/C: 101 % of control
endpoint: median survival time, dose: 12.5 mg/kg/injection, schedule: Q01DX009 (ip), vehicle: saline with Tween-80
  T/C: 95 % of control
endpoint: median survival time, dose: 25.0 mg/kg/injection, schedule: Q01DX009 (ip), vehicle: saline with Tween-80
  T/C: 98 % of control and 100 % of control
endpoint: median survival time, dose: 50.0 mg/kg/injection, schedule: Q01DX009 (ip), vehicle: saline with Tween-80
  T/C: 101 % of control and 102 % of control
endpoint: median survival time, dose: 100.0 mg/kg/injection, schedule: Q01DX009 (ip), vehicle: saline with Tween-80
  T/C: 100 % of control and 102 % of control
endpoint: median survival time, dose: 200.0 mg/kg/injection, schedule: Q01DX009 (ip), vehicle: saline with Tween-80
  T/C: 102 % of control
endpoint: median survival time, dose: 400.0 mg/kg/injection, schedule: Q01DX009 (ip), vehicle: saline with Tween-80
  T/C: 105 % of control

## O=S(=O)(Nc1ccc(O)cc1)c1ccccc1
[1]
  T/C: 103 % of control
[2]
  T/C: 101 % of control
[3]
  T/C: 95 % of control
[4]
  T/C: 103 % of control
[5]
  T/C: 95 % of control
[6]
  T/C: 107 % of control

## CS(=O)(=O)OCC1C(COS(C)(=O)=O)N(S(C)(=O)=O)S(=O)N1S(C)(=O)=O (stereo not given)
endpoint: mean survival time, dose: 100.0 mg/kg/injection, schedule: Q01DX001 (ip), vehicle: saline
  T/C: 100 % of control
[7]
  T/C: 111 % of control
endpoint: mean survival time, dose: 200.0 mg/kg/injection, schedule: Q01DX001 (ip), vehicle: saline
  T/C: 95 % of control
[8]
  T/C: 108 % of control
endpoint: mean survival time, dose: 400.0 mg/kg/injection, schedule: Q01DX001 (ip), vehicle: saline
  T/C: 94 % of control
endpoint: mean survival time, dose: 400.0 mg/kg/injection, schedule: Q04DX003 (ip), vehicle: saline
  T/C: 91 % of control

## c1ccc2[nH]c(CCCCc3nc4ccccc4[nH]3)nc2c1
[7]
  T/C: 104 % of control
[8]
  T/C: 100 % of control

## CCN(CC)C1=C(Cl)C(=O)C(=O)c2cccnc21
endpoint: mean survival time, dose: 9.4 mg/kg/injection, schedule: Q01DX009 (ip), vehicle: saline
  T/C: 101 % of control

## [N-]=[N+]=CC(=O)c1c(Cl)n(-c2ccccc2)c2ccccc12
endpoint: mean survival time, dose: 50.0 mg/kg/injection, schedule: Q04DX003 (ip), vehicle: saline with Tween-80
  T/C: 90 % of control
[2]
  T/C: 98 % of control
[4]
  T/C: 101 % of control

## CCOc1ccnc(OCC)n1
[2]
  T/C: 105 % of control
[4]
  T/C: 102 % of control

## N#CCCOc1ccc(Cl)cc1
[9]
  T/C: 107 % of control
[1]
  T/C: 97 % of control
[3]
  T/C: 96 % of control

## OC1C2CCC1C(N1CCOCC1)CC2 (stereo not given)
[9]
  T/C: 103 % of control
[1]
  T/C: 109 % of control
[2]
  T/C: 98 % of control
[3]
  T/C: 97 % of control
[4]
  T/C: 102 % of control

## COc1cc(N)c2nc(C(O)C(O)C(O)CO)cnc2c1 (stereo not given)
endpoint: median survival time, dose: 12.5 mg/kg/injection, schedule: Q01DX005 (ip), vehicle: distilled water + Tween-80
  T/C: 98 % of control
endpoint: median survival time, dose: 25.0 mg/kg/injection, schedule: Q01DX005 (ip), vehicle: distilled water + Tween-80
  T/C: 90 % of control
endpoint: median survival time, dose: 50.0 mg/kg/injection, schedule: Q01DX005 (ip), vehicle: distilled water + Tween-80
  T/C: 89 % of control
endpoint: median survival time, dose: 100.0 mg/kg/injection, schedule: Q01DX005 (ip), vehicle: distilled water + Tween-80
  T/C: 92 % of control
endpoint: median survival time, dose: 200.0 mg/kg/injection, schedule: Q01DX005 (ip), vehicle: distilled water + Tween-80
  T/C: 95 % of control

## O=C(C[P+](c1ccccc1)(c1ccccc1)c1ccccc1)c1ccccc1
endpoint: mean survival time, dose: 25.0 mg/kg/injection, schedule: Q01DX001 (ip), vehicle: Klucel (hydroxypropylcellulose) (HPC)
  T/C: 107 % of control
endpoint: mean survival time, dose: 50.0 mg/kg/injection, schedule: Q01DX001 (ip), vehicle: Klucel (hydroxypropylcellulose) (HPC)
  T/C: 107 % of control
endpoint: mean survival time, dose: 100.0 mg/kg/injection, schedule: Q01DX001 (ip), vehicle: Klucel (hydroxypropylcellulose) (HPC)
  T/C: 96 % of control
[1]
  T/C: 103 % of control
[3]
  T/C: 97 % of control
[5]
  T/C: 103 % of control

## [O-][n+]1c(CN2CCCCC2)nc2cccc3c2c1-c1ccccc1-3
endpoint: mean survival time, dose: 12.5 mg/kg/injection, schedule: Q01DX009 (ip), vehicle: saline with Tween-80
  T/C: 104 % of control
endpoint: mean survival time, dose: 25.0 mg/kg/injection, schedule: Q01DX009 (ip), vehicle: saline with Tween-80
  T/C: 103 % of control
[9]
  T/C: 103 % of control
[1]
  T/C: 113 % of control
[3]
  T/C: 109 % of control

## CCCCCCCCC(=O)N1CCN(C(=O)CCCCCCCC)C1
endpoint: mean survival time, dose: 75.0 mg/kg/injection, schedule: Q04DX003 (ip), vehicle: saline
  T/C: 94 % of control
endpoint: mean survival time, dose: 150.0 mg/kg/injection, schedule: Q04DX003 (ip), vehicle: saline
  T/C: 97 % of control
endpoint: mean survival time, dose: 300.0 mg/kg/injection, schedule: Q04DX003 (ip), vehicle: saline
  T/C: 95 % of control

## Nc1nc2ccc(CSc3ccc(C(=O)NC(CCC(=O)O)C(=O)O)cc3)nc2c(=O)[nH]1 (stereo not given)
endpoint: mean survival time, dose: 0.5 mg/kg/injection, schedule: Q01DX005 (ip), vehicle: sodium bicarbonate
  T/C: 103 % of control and 106 % of control
endpoint: mean survival time, dose: 1.0 mg/kg/injection, schedule: Q01DX005 (ip), vehicle: sodium bicarbonate
  T/C: 97 % of control and 106 % of control
endpoint: mean survival time, dose: 2.0 mg/kg/injection, schedule: Q01DX005 (ip), vehicle: sodium bicarbonate
  T/C: 97 % of control and 108 % of control
endpoint: mean survival time, dose: 4.0 mg/kg/injection, schedule: Q01DX005 (ip), vehicle: sodium bicarbonate
  T/C: 101 % of control and 106 % of control
endpoint: mean survival time, dose: 8.0 mg/kg/injection, schedule: Q01DX005 (ip), vehicle: sodium bicarbonate
  T/C: 97 % of control and 108 % of control
endpoint: mean survival time, dose: 16.0 mg/kg/injection, schedule: Q01DX005 (ip), vehicle: sodium bicarbonate
  T/C: 102 % of control and 103 % of control

## CCc1ccc(CC)c(CC)c1CC
[9]
  T/C: 98 % of control
[1]
  T/C: 95 % of control
[2]
  T/C: 98 % of control
[3]
  T/C: 92 % of control
[4]
  T/C: 104 % of control

## O=C1CC2CCCCC2CO1 (stereo not given)
endpoint: mean survival time, dose: 75.0 mg/kg/injection, schedule: Q01DX001 (ip), vehicle: saline
  T/C: 160 % of control

## C=C1C(=O)OCC1(C(=O)OCC)C(=O)OCC
endpoint: mean survival time, dose: 5.0 mg/kg/injection, schedule: Q01DX001 (ip), vehicle: saline
  T/C: 100 % of control
endpoint: mean survival time, dose: 10.0 mg/kg/injection, schedule: Q01DX001 (ip), vehicle: saline
  T/C: 100 % of control
endpoint: mean survival time, dose: 20.0 mg/kg/injection, schedule: Q01DX001 (ip), vehicle: saline
  T/C: 100 % of control
endpoint: mean survival time, dose: 40.0 mg/kg/injection, schedule: Q01DX001 (ip), vehicle: saline
  T/C: 108 % of control

## O=C1Nc2ccc([N+](=O)[O-])c3c([N+](=O)[O-])ccc1c23
[2]
  T/C: 98 % of control
[4]
  T/C: 97 % of control
[6]
  T/C: 102 % of control

## CCCCCCCCCCCCNC(=O)OCCN(CCOC(=O)NCCCCCCCCCCCC)C(=O)COc1ccc(Cl)cc1
endpoint: mean survival time, dose: 100.0 mg/kg/injection, schedule: Q04DX003 (ip), vehicle: other
  T/C: 86 % of control
endpoint: mean survival time, dose: 200.0 mg/kg/injection, schedule: Q04DX003 (ip), vehicle: other
  T/C: 91 % of control
endpoint: mean survival time, dose: 400.0 mg/kg/injection, schedule: Q04DX003 (ip), vehicle: other
  T/C: 93 % of control

## CC/C(C)=N\O
endpoint: mean survival time, dose: 100.0 mg/kg/injection, schedule: Q01DX009 (ip), vehicle: saline
  T/C: 97 % of control
endpoint: mean survival time, dose: 200.0 mg/kg/injection, schedule: Q01DX009 (ip), vehicle: saline
  T/C: 111 % of control
endpoint: mean survival time, dose: 400.0 mg/kg/injection, schedule: Q01DX009 (ip), vehicle: saline
  T/C: 97 % of control

## C[S+](C)CC(=O)c1ccccc1O
[2]
  T/C: 103 % of control
[4]
  T/C: 99 % of control
[6]
  T/C: 100 % of control

## CC[C@@]1(OP(=O)(O)O)C(=O)OCc2c1cc1n(c2=O)Cc2cc3ccccc3nc2-1
endpoint: median survival time, dose: 5.5 mg/kg/injection, schedule: Q04DX002 (ip), vehicle: water
  T/C: 111 % of control and 112 % of control
endpoint: median survival time, dose: 8.25 mg/kg/injection, schedule: Q04HX004 (iv), vehicle: water
  T/C: 154 % of control
endpoint: median survival time, dose: 11.0 mg/kg/injection, schedule: Q04DX002 (ip), vehicle: water
  T/C: 119 % of control and 104 % of control
endpoint: median survival time, dose: 16.5 mg/kg/injection, schedule: Q04HX004 (iv), vehicle: water
  T/C: 158 % of control and 180 % of control
endpoint: median survival time, dose: 33.0 mg/kg/injection, schedule: Q04HX004 (iv), vehicle: water
  T/C: 177 % of control and 221 % of control
endpoint: median survival time, dose: 44.0 mg/kg/injection, schedule: Q04DX002 (ip), vehicle: water
  T/C: 158 % of control and 192 % of control
endpoint: median survival time, dose: 44.0 mg/kg/injection, schedule: Q04HX004 (iv), vehicle: water
  T/C: 207 % of control

## COc1c(NS(=O)(=O)c2ccccc2)cc2c3c(cccc13)/C(=C1\Cc3cccc4c(OC)c(NS(=O)(=O)c5ccccc5)cc1c34)C2
[2]
  T/C: 95 % of control
[4]
  T/C: 91 % of control
[6]
  T/C: 92 % of control
